These results are taken from ChEMBL document CHEMBL1146587, “Purification, structure determination, and antimicrobial activity of neutramycins B-G” (2003).

The subject of the assay is Staphylococcus aureus. In words: Antibacterial activity against Staphylococcus aureus ATCC 6538P after 18 hrs by broth microdilution method. The assay is classed as functional.

Values after ≈ are worked out from the molar mass of the structure shown.

As for `CO[C@@H]1[C@H](O)[C@@H](C)O[C@@H](OC[C@H]2[C@@H]3O[C@@H]3/C=C/C(=O)[C@H](C)CC[C@H](O[C@@H]3O[C@H](C)C[C@H](O)[C@H]3O)[C@@H](C)/C=C/C(=O)O[C@@H]2C)[C@@H]1OC` [NEUTRAMYCIN E], 32 µg/mL (≈ 48.7 µM) was the least that counted as inhibitory (MIC).

A word on the MIC: it is the least concentration at which growth counts as inhibited. A high value points to a less susceptible organism.
